Source: patent US4749710A, “Immunosuppressive agents” (priority 1985, dated 1988)

What was measured:
[1] = system: IgG production by human lymphocytes; experiment: Inhibition of IgG production by human lymphocytes in vitro (SAC activation, ELISA); format: cell-based; settings: 8 days, vehicle control 0.78 ± 0.09
How it was run: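 Human PBL (2.5×10^6 cells/ml in 20% FBS RPMI) activated with SAC (1:20,000) for 8 days with vitamin D derivatives at 10^-5–10^-10 M final, 0.1% ethanol vehicle, triplicates. Secreted IgM or IgG quantified by ELISA and compared with vehicle cultures.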

[2] = system: cytotoxic T-lymphocyte responses (P815 tumor cells); experiment: Suppression of murine CTL responses in vivo (mice immunized with P815 cells); parameters: species or system C57BL/6 mice; settings: for CTL activity (% specific ^51 Cr release): day 10; for CTL activity (% specific ^51 Cr release) / Inhibition of CTL activity (%): effector to target 10:1
Experimental: General description. The general test considerations are similar to those previously described for the in vitro murine experiments except that stimulator cells and experimental compound were administered to intact laboratory mice. The impact of compound on CTL responses generated in vivo was determined by comparing the resultant CTL activity from test mice to the CTL activity generated in mice which received vehicle only.
Female C57BL/6 mice were used between the ages of 9-12 weeks. Mice were given food and water ad libitum and were kept in a 12-hour light and 12-hour dark cycle.
A balanced salt solution (BSS) was prepared as described for tissue culture medium in the in vitro murine experiments but was additionally supplemented to 0.01 molar with HEPES buffer.
The compound, 22,23-dehydro-1α,25S,26-trihydroxycholecalciferol was dissolved in dimethylsulfoxide at final concentrations of 2 or 4 mg per ml. When working with vitamin D compounds, conditions of reduced lighting were employed.
In vivo regimens. Mice were apportioned at 4 per group and were inoculated intraperitoneally with 3×10^6 allogeneic P815 tumor cells and the resulting CTL activity was assessed 10 days later. Mice were treated by the intraperitoneal route with 25 microliters of test compound dissolved in dimethylsulfoxide or with dimethylsulfoxide only (vehicle control). In test 1, mice were given daily treatments of 50 micrograms of 22,23-dehydro-1α,25S,26-trihydroxycholecalciferol per day starting one day before immunization and continuing until the day before assay. In test 2, mice were treated with 100 micrograms of 22,23-dehydro-1α,25S,26-trihydroxycholecalciferol only twice: on the day before immunization and on the day of immunization.
Assay for CTL activity. Ten days after immunization of mice with P815 cells, single spleen cell suspensions were prepared by passage of spleens through a steel mesh into BSS and were subsequently washed twice with BSS. Further manipulations of spleen cells, labeling of P815 target cells with ^51 Cr, mechanics of the assay, and the calculation of results from the CTL assay are the same as described earlier for the in vitro murine CTL tests. Cytotoxic T lymphocyte activity was determined individually on spleen cells from each animal in each group and the results are expressed as the mean CTL activity (as percent specific ^51 Cr release) of each group±the standard deviation.
Statistical analysis. A student's t-test was to compare the vehicle-treatedgroup to the test group in each test and the resultant p values are shown.

| Structure (SMILES) | IgG μg per culture (x ± S.E.M.) ([1]; 1 × 10^-6 molar) | IgG μg per culture (x ± S.E.M.) ([1]; 1 × 10^-7 molar) | IgG μg per culture (x ± S.E.M.) ([1]; 1 × 10^-8 molar) | IgG μg per culture (x ± S.E.M.) ([1]; 1 × 10^-9 molar) | IgG μg per culture (x ± S.E.M.) ([1]; 1 × 10^-10 molar) | reduction in CTL activity in mice (in words) ([2]; both tests) | CTL activity (% specific ^51 Cr release) ([2]; test 1, 50 ug/dose intraperitoneal daily) | Inhibition of CTL activity (%) ([2]; test 1, 50 ug/dose intraperitoneal daily, p < 0.05) | CTL activity (% specific ^51 Cr release) ([2]; test 2, 100 ug/dose intraperitoneal, twice) | Inhibition of CTL activity (%) ([2]; test 2, 100 ug/dose intraperitoneal, twice, p < 0.01) |
| --- | --- | --- | --- | --- | --- | --- | --- | --- | --- | --- |
| C=C1/C(=C\C=C2/CCC[C@]3(C)[C@@H]([C@H](C)C[C@H](O)CC(C)(C)O)CC[C@@H]23)C[C@@H](O)C[C@@H]1O [1α,23S,25-(OH)3 --D3, 1α,23S,25-Trihydroxycholecalciferol] | 0.01 ± 0.002 μg per culture | 0.02 ± 0.002 μg per culture | 0.05 ± 0.01 μg per culture | 1.14 ± 0.61 μg per culture | 0.54 ± 0.18 μg per culture |  |  |  |  |  |
| C=C1/C(=C\C=C2/CCC[C@]3(C)[C@@H]([C@H](C)/C=C/[C@H](C)[C@](C)(O)CO)CC[C@@H]23)C[C@@H](O)C[C@@H]1O [1α,25S,26-(OH)3 --D2, 1α,25S,26-Trihydroxyergocalciferol] | undetectable | 0.01 ± 0.005 μg per culture | 0.07 ± 0.02 μg per culture | 0.08 ± 0.03 μg per culture | 0.21 ± 0.06 μg per culture |  |  |  |  |  |
| C=C1/C(=C\C=C2/CCC[C@]3(C)[C@@H]([C@H](C)C=CC[C@](C)(O)CO)CC[C@@H]23)C[C@@H](O)C[C@@H]1O [1α,25S,26-(OH)3 --Δ^22 -D3, 1α,25S,26-Trihydroxy-Δ^22-cholecalciferol] | 0.005 ± 0.002 μg per culture | 0.01 ± 0.002 μg per culture | 0.04 ± 0.01 μg per culture | 0.06 ± 0.03 μg per culture | 0.20 ± 0.03 μg per culture | statistically significant reduction in CTL activity | 13 ± 4 % specific ^51 Cr release | 58% | 14 ± 2 % specific ^51 Cr release | 53% |
